Measured values: publication PMC6272341, “Synthesis and Biological Evaluation of N-Alkoxyphenyl-3-hydroxynaphthalene-2-carboxanilides” (Molecules, 2015)
Values after ≈ are worked out from the molar mass of the structure shown. Values joined by “and” are separate entries in the source; they are usually repeats but may differ in a detail not shown here. Identical values can stand only once. Like-named read-outs stand apart in the source and are kept apart here.

Columns and labels:
[1] = tested on: methicillin-resistant S. aureus clinical isolate SA 630; test: In vitro antibacterial susceptibility testing, broth dilution micro-method (MIC); conditions: 24 h; for MIC: Staphylococcus aureus, MRSA, read-out: MIC MRSA SA 630, clinical isolate MRSA SA 630, 37 °C, MH broth
[2] = tested on: S. aureus ATCC 29213; test: as above; conditions: Staphylococcus aureus, ATCC29213, 24 h, read-out: MIC SA
[3] = tested on: clinical isolate of M. avium subsp. paratuberculosis CIT03; test: In vitro antimycobacterial evaluation, alamarBlue (MIC); format: cell-based; conditions: Mycobacterium avium, 264 h, read-out: MIC MAP
[4] = tested on: methicillin-resistant S. aureus clinical isolate MRSA 63718; test: In vitro antibacterial susceptibility testing, broth dilution micro-method (MIC); conditions: for MIC: Staphylococcus aureus, MRSA, read-out: MIC MRSA 63718, clinical isolate MRSA 63718
[5] = tested on: methicillin-resistant S. aureus clinical isolate SA 3202; test: as above; conditions: 24 h; for MIC: Staphylococcus aureus, MRSA, read-out: MIC MRSA 3202, clinical isolate MRSA 3202, 37 °C, MH broth
[6] = tested on: human monocytic leukemia THP-1 cells; conditions: 24 h
[7] = tested on: M. tuberculosis H37Ra ATCC 25177; test: In vitro antimycobacterial evaluation, alamarBlue (MIC); format: cell-based; conditions: Mycobacterium tuberculosis, 168 h, read-out: MIC MT
Method: The evaluation of the in vitro antimycobacterial activity of the compounds was performed against M. tuberculosis H37Ra ATCC 25177 [25] and clinical isolate of M. avium subsp. paratuberculosis CIT03 [26], see Table 1. The activity of compounds was expressed as the minimum inhibitory concentration (MIC) that is defined for mycobacteria as a 90% or greater (IC90) reduction of growth in comparison with the control. The MIC/IC90 value is routinely and widely used in bacterial assays, being a standard detection limit according to the Clinical and Laboratory Standards Institute.
Mycobacterium tuberculosis H37Ra ATCC 25177 and well characterised clinical isolate M. avium subsp. paratuberculosis CIT03 were grown in Middlebrook broth (MB), supplemented with Oleic-Albumin-Dextrose-Catalase supplement (Becton Dickinson, Oxford, UK) and mycobactin J (2 μg/mL). Identification of these isolates was performed using biochemical and molecular protocols. At log phase growth, a culture sample (10 mL) was centrifuged at 15,000 rpm/20 min using a bench top centrifuge (Model CR 4-12, Jouan Inc., Winchester, VA, USA). Following removal of the supernatant, the pellet was washed in fresh Middlebrook 7H9GC broth and re-suspended in fresh supplemented MB (10 mL). The turbidity was adjusted to match McFarland standard No. 1 (3 × 10^8 cfu) with MB broth. A further 1:20 dilution of the culture was then performed in MB broth. The antimicrobial susceptibility of all three mycobacterial species was investigated in a 96-well plate format. In these experiments, sterile deionised water (300 µL) was added to all outer-perimeter wells of the plates to minimize evaporation of the medium in the test wells during incubation. Sample wells were composed of 100 µL of test compound dilution and 100 µL of the bacterial stock being tested against. Dilutions of each compound were prepared in duplicate. For all synthesized compounds, final concentrations ranged from 1000 μg/mL to 8 μg/mL. All compounds were prepared in DMSO and subsequent dilutions were made in supplemented MB. The plates were sealed with parafilm and incubated at 37 °C, for 7 days in the case of M. tuberculosis and 11 days in the case of M. avium subsp. paratuberculosis. Following incubation, a 10% addition of alamarBlue (AbD Serotec, Kidlington, UK) was mixed into each well and readings at 570 nm and 600 nm were taken, initially for background subtraction and subsequently after 24 h re-incubation. The background subtraction is necessary for strongly coloured compounds, where the colour may interfere with the interpretation of any colour change. For non-interfering compounds, a blue colour in the well was interpreted as an absence of growth and a pink colour was scored as growth. […] The MIC value is routinely and widely used in bacterial assays and is a standard detection limit according to the Clinical and Laboratory Standards Institute (CLSI,). Rifampicin (Sigma-Aldrich) was used as the standard as it is clinically used antimycobacterial drugs.

[8] = tested on: photosynthetic electron transport in spinach chloroplasts; test: Inhibition of photosynthetic electron transport (PET), DCPIP photoreduction (Hill reaction); format: biochemical, spinach (Spinacia oleracea L.)
Method: The PET inhibiting activity of the compounds was expressed by IC50 values. […] The aqueous solubility of the para-substituted compounds was limited; therefore IC50 values could not be determined due to precipitation of compounds during experiment. […]
Chloroplasts were prepared from spinach (Spinacia oleracea L.) according to Masarovicova and Kralova. The inhibition of photosynthetic electron transport (PET) in spinach chloroplasts was determined spectrophotometrically (Genesys 6, Thermo Scientific Corporation), using an artificial electron acceptor 2,6-dichlorophenol-indophenol (DCPIP) according to Kralova et al., and the rate of photosynthetic electron transport was monitored as a photoreduction of DCPIP. The measurements were carried out in phosphate buffer (20.0 mM, pH 7.2) containing sucrose (0.4 M), MgCl2 (5.0 mM) and NaCl (15.0 mM). The chlorophyll content was 30 mg/L in these experiments and the samples were irradiated (~100 W/m^2 with 10 cm distance) with a halogen lamp (250 W) using a 4 cm water filter to prevent warming of the samples (suspension temperature 22 °C). The studied compounds were dissolved in DMSO due to their limited aqueous solubility. The applied DMSO concentration (up to 4%) had negligible effect on the photochemical activity in isolated spinach chloroplasts (observed differences in DCPIP photoreduction due DMSO addition were within experimental error). The inhibitory efficiency of the studied compounds was expressed by IC50 values, i.e., by molar concentration of the compounds causing 50% decrease in DCPIP photoreduction relative to the untreated control. […] All reagents used in this study were of analytical grade and were purchased from Sigma.

[9] = M. avium subsp. paratuberculosis CIT03, 11 days, 37 °C, alamarBlue, MIC/IC90
[10] = M. tuberculosis H37Ra, 7 days, 37 °C, alamarBlue, MIC/IC90

Compound	MIC [1] [µM]	MIC [2] [µM]	MIC [3, 9] [µM]	MIC ([4]; 24 h, 24 h, 37 °C, MH broth) [µM]	MIC [5] [µM]	LD50 [6] [µM]	MIC [7] [µM]	MIC [3] [µM]	IC50 [8]	MIC [7, 10] [µM]	MIC MRSA SA 630 ([1]; clinical isolate MRSA SA 630, 37 °C, MH broth) [µM]	activity fold higher than that of ampicillin ([4]; antibacterial activity against MRSA strains versus ampicillin) [fold]	MIC MRSA 63718 ([4]; clinical isolate MRSA 63718, 24 h, 37 °C, MH broth) [µM]	MIC MRSA 3202 ([5]; clinical isolate MRSA 3202, 37 °C, MH broth) [µM]
O=C(Nc1ccccc1)c1cc2ccccc2cc1O [Compound 2, 3-Hydroxy-N-phenylnaphthalene-2-carboxamide]	972 (≈ 256 µg/mL)	972 (≈ 256 µg/mL)	950 (≈ 250 µg/mL)	972 (≈ 256 µg/mL)	972 (≈ 256 µg/mL)	>30	950 (≈ 250 µg/mL)							
CCOc1ccccc1NC(=O)c1cc2ccccc2cc1O [Compound 4a, N-(2-Ethoxyphenyl)-3-hydroxynaphthalene-2-carboxamide]	832 (≈ 256 µg/mL)	832 (≈ 256 µg/mL)		832 (≈ 256 µg/mL)	832 (≈ 256 µg/mL)	>30		813 (≈ 250 µg/mL)	76.1 µM	813 (≈ 250 µg/mL)				
CCCCOc1cccc(NC(=O)c2cc3ccccc3cc2O)c1 [Compound 6b, N-(3-Butoxyphenyl)-3-hydroxynaphthalene-2-carboxamide]	763 (≈ 256 µg/mL)	763 (≈ 256 µg/mL)		763 (≈ 256 µg/mL)	763 (≈ 256 µg/mL)	16.5 ± 0.8		745 (≈ 250 µg/mL)	7.8 µM	745 (≈ 250 µg/mL)				
CCC(C)Oc1ccc(NC(=O)c2cc3ccccc3cc2O)cc1 (centres unmarked) [Compound 8c, N-[4-(But-2-yloxy)phenyl]-3-hydroxynaphthalene-2-carboxamide]	763 (≈ 256 µg/mL)	763 (≈ 256 µg/mL)	745 (≈ 250 µg/mL)	763 (≈ 256 µg/mL)	763 (≈ 256 µg/mL)	>30				89 (≈ 29.9 µg/mL)				
CCCCOc1ccccc1NC(=O)c1cc2ccccc2cc1O [Compound 6a, N-(2-Butoxyphenyl)-3-hydroxynaphthalene-2-carboxamide]	763 (≈ 256 µg/mL)	763 (≈ 256 µg/mL)	745 (≈ 250 µg/mL)	763 (≈ 256 µg/mL)	763 (≈ 256 µg/mL)	>30			182 µM	373 (≈ 125 µg/mL)				
CN(C)C(=O)Nc1ccc(Cl)c(Cl)c1 [DCMU, 3-(3,4-dichlorophenyl)-1,1-dimethylurea, reference compound]									~1.9 µM and 1.9 µM					
CC(C)Oc1ccccc1NC(=O)c1cc2ccccc2cc1O [Compound 7a, 3-Hydroxy-N-[2-(prop-2-yloxy)phenyl]naphthalene-2-carboxamide]	796 (≈ 256 µg/mL)	796 (≈ 256 µg/mL)	778 (≈ 250 µg/mL)	796 (≈ 256 µg/mL)	796 (≈ 256 µg/mL)	>30			138 µM	389 (≈ 125 µg/mL)				
CCCOc1ccc(NC(=O)c2cc3ccccc3cc2O)cc1 [Compound 5c, 3-Hydroxy-N-(4-propoxyphenyl)naphthalene-2-carboxamide]	796 (≈ 256 µg/mL)	796 (≈ 256 µg/mL)		796 (≈ 256 µg/mL)	796 (≈ 256 µg/mL)	>30		778 (≈ 250 µg/mL)		778 (≈ 250 µg/mL)				
COc1ccc(NC(=O)c2cc3ccccc3cc2O)cc1 [Compound 3c, 3-hydroxy-N-(4-methoxyphenyl)naphthalene-2-carboxamide]	873 (≈ 256 µg/mL)	873 (≈ 256 µg/mL)		873 (≈ 256 µg/mL)	873 (≈ 256 µg/mL)	>30		852 (≈ 250 µg/mL)		852 (≈ 250 µg/mL)				
CCCOc1cccc(NC(=O)c2cc3ccccc3cc2O)c1 [Compound 5b, 3-Hydroxy-N-(3-propoxyphenyl)naphthalene-2-carboxamide]	796 (≈ 256 µg/mL)	796 (≈ 256 µg/mL)		796 (≈ 256 µg/mL)	796 (≈ 256 µg/mL)			778 (≈ 250 µg/mL)	4.8 µM	778 (≈ 250 µg/mL)				
CO[C@H]1/C=C/O[C@@]2(C)Oc3c(C)c(O)c4c(O)c(c(/C=N/N5CCN(C)CC5)c(O)c4c3C2=O)NC(=O)/C(C)=C\C=C\[C@H](C)[C@H](O)[C@@H](C)[C@@H](O)[C@@H](C)[C@H](OC(C)=O)[C@@H]1C [RIF, rifampicin, reference compound]			109 (≈ 89.7 µg/mL)							10 (≈ 8.23 µg/mL)				
CCCCOc1ccc(NC(=O)c2cc3ccccc3cc2O)cc1 [Compound 6c, N-(4-Butoxyphenyl)-3-hydroxynaphthalene-2-carboxamide]	763 (≈ 256 µg/mL)	763 (≈ 256 µg/mL)		763 (≈ 256 µg/mL)	763 (≈ 256 µg/mL)	>30		745 (≈ 250 µg/mL)		745 (≈ 250 µg/mL)				
COc1ccccc1NC(=O)c1cc2ccccc2cc1O [Compound 3a, 3-hydroxy-N-(2-methoxyphenyl)naphthalene-2-carboxamide]	55 (≈ 16.1 µg/mL)	55 (≈ 16.1 µg/mL)	205 (≈ 60.1 µg/mL)	55 (≈ 16.1 µg/mL)	55 (≈ 16.1 µg/mL)				59.5 µM	51 (≈ 15 µg/mL)				
CC1(C)S[C@@H]2[C@H](NC(=O)[C@H](N)c3ccccc3)C(=O)N2[C@H]1C(=O)O [APC, ampicillin, reference compound]	> 46	5.7 (≈ 1.99 µg/mL)		> 46	> 46									
CCCOc1ccccc1NC(=O)c1cc2ccccc2cc1O [Compound 5a, 3-Hydroxy-N-(2-propoxyphenyl)naphthalene-2-carboxamide]	12 (≈ 3.86 µg/mL)	12.4 (≈ 3.99 µg/mL)		12 (≈ 3.86 µg/mL)	12 (≈ 3.86 µg/mL)			778 (≈ 250 µg/mL)	128 µM	778 (≈ 250 µg/mL)	12.4 (≈ 3.99 µg/mL)	~4	12.4 (≈ 3.99 µg/mL)	12.4 (≈ 3.99 µg/mL)
CCOc1ccc(NC(=O)c2cc3ccccc3cc2O)cc1 [Compound 4c, N-(4-Ethoxyphenyl)-3-hydroxynaphthalene-2-carboxamide]	832 (≈ 256 µg/mL)	832 (≈ 256 µg/mL)		832 (≈ 256 µg/mL)	832 (≈ 256 µg/mL)	>30		813 (≈ 250 µg/mL)		813 (≈ 250 µg/mL)				
CC(C)Oc1ccc(NC(=O)c2cc3ccccc3cc2O)cc1 [Compound 7c, 3-Hydroxy-N-[4-(prop-2-yloxy)phenyl]naphthalene-2-carboxamide]	796 (≈ 256 µg/mL)	796 (≈ 256 µg/mL)	778 (≈ 250 µg/mL)	796 (≈ 256 µg/mL)	796 (≈ 256 µg/mL)	>30				389 (≈ 125 µg/mL)				
